US20100297112A1, “COMBINATIONS COMPRISING DMXAA FOR THE TREATMENT OF CANCER” (Antisoma Research Limited, priority 2005, published 2010)
Like-named read-outs stand apart in the source and are kept apart here.

What was measured:
[1] = cited from earlier work
[2] = diclofenac 100 mg/kg i.p., cited from earlier work
[3] = system: A549 (lung carcinoma) xenografts; experiment: A549 xenograft study with paclitaxel triple combination (Example 2); type: in vivo, mice; conditions: for Drug deaths: Paclitaxel 5, Avastin 5, DMXAA 21 mg/kg by injection; for Regression Duration: days tumour volume less than original treatment volume; for Tumour Growth Delay: treated versus control tumours to quadruple in volume (control 25 days); for Median VQT: tumour volume quadrupling time; for Response CR (Complete Response): undetectable tumour over two weeks; for Response PR (Partial Response): ≧50% reduction in tumour size sustained over two weeks; for Response PD (Progressive Disease): ≧50% increase in tumour size
Text: The experimental set-up of this example with respect to the xenografts, mice and cell line is as described in Example 1 above.

[4] = system: A549 (lung carcinoma) xenografts; conditions: for Regression Duration: Example 1, days tumour volume less than original treatment volume; for Tumour Growth Delay: Example 1, treated versus control tumours to quadruple in volume (control 25 days); for Median VQT: Example 1, tumour volume quadrupling time; for Response CR (Complete Response): Example 1, undetectable tumour over two weeks; for Response PR (Partial Response): Example 1, ≧50% reduction in tumour size sustained over two weeks
Method: (§1) Xenografts for human lung and colorectal cancers are set-up in groups of nude, athymic mice. The cell lines selected are HT29 (ATCC number HTB-38), a colorectal adenocarcinoma, and A549 (ATCC number CCL-185), a lung carcinoma.
(§2) For this study, DMXAA is given twice in each of Weeks 1 and 4 of the study.
(§3) Xenografts are measured two or three times per week and their absolute volume recorded; xenograft tumour volume relative to that recorded on Day 0 (V0) is then calculated. The time taken to reach a relative tumour volume of 3× V0 is used as a surrogate marker for survival.

[5] = system: HT29 (colorectal) xenografts; conditions: for Regression Duration: days tumour volume less than original treatment volume; for Tumour Growth Delay: treated versus control tumours to quadruple in volume (control 17 days); for Median VQT: tumour volume quadrupling time; for Response CR (Complete Response): undetectable tumour over two weeks; for Response PR (Partial Response): ≧50% reduction in tumour size sustained over two weeks
Method: as §1, §2, §3

human tumours = conditions: phase I, monotherapy, cited from earlier work

In the case of `O=C1CCC(N2C(=O)c3ccccc3C2=O)C(=O)N1` (centres unmarked) [Thalidomide, thalidomide], the “increase of the AUC of DMXAA” value ([1]; in plasma, liver and spleen) is given as 1.8 times and the “increase of the AUC of DMXAA” value ([1]; in tumour) is given as “three”.
For `O=C(O)Cc1ccccc1Nc1c(Cl)cccc1Cl` [diclofenac], the “increase in the plasma DMXAA AUC” value ([2]; female mice) is listed as 31%, the “increase in T1/2 of DMXAA” value ([2]; male and female mice, P<0.05) is listed as “threefold” and the “increase in the plasma DMXAA AUC” value ([2]; male mice) is listed as 24%.
For “Avastin ™: humanised monoclonal antibody that binds to vascular endothelial growth factor (VEGF)”, the “TTP (median time to disease progression)” value [3] was 7 days, the Drug deaths [3] was 0/11 and the “Regression Duration” value [3] was 0 days. The “Tumour Growth Delay” value [3] was over 17 days, the “Median VQT” value [3] was over 42 days and the “Response CR (Complete Response)” value [3] was 0. For the same molecule, the “Response PR (Partial Response)” value [3] was 0, the “TTP (median time to disease progression)” value ([4]; Example 1) was 8 days and the “Regression Duration” value [4] was 0 days. The “Tumour Growth Delay” value [4] was 42 days, the “Median VQT” value [4] was 67 days and the “Response CR (Complete Response)” value [4] was 0. The “Response PR (Partial Response)” value [4] was 1, the “Regression Duration” value [5] was 0 days and the “Tumour Growth Delay” value [5] was 17 days. For the same molecule, the “Median VQT” value [5] was 34 days, the “Response CR (Complete Response)” value [5] was 0 and the “Response PR (Partial Response)” value [5] was 0.
For `CC(=O)O[C@H]1C(=O)[C@@]2(C)[C@H]([C@H](OC(=O)c3ccccc3)[C@]3(O)C[C@H](OC(=O)[C@H](O)[C@@H](NC(=O)c4ccccc4)c4ccccc4)C(C)=C1C3(C)C)[C@]1(OC(C)=O)CO[C@@H]1C[C@@H]2O` [Paclitaxel, paclitaxel], the “Response SD (Stable Disease)” value [3] was 0, the “TTP (median time to disease progression)” value [3] was 7 days and the Drug deaths [3] was 0/11. The “Regression Duration” value [3] was 0 days, the “Tumour Growth Delay” value [3] was 3 days and the “Median VQT” value [3] was 28 days. For the same molecule, the “Response CR (Complete Response)” value [3] was 0, the “Response PD (Progressive Disease)” value [3] was 11 and the “Response PR (Partial Response)” value [3] was 0.
In the case of `Cc1ccc2c(=O)c3cccc(CC(=O)O)c3oc2c1C` [DMXAA, 5,6-dimethylxanthenone-4-acetic acid], the “Response SD (Stable Disease)” value [3] is reported as 0, the “TTP (median time to disease progression)” value [3] is reported as 7 days and the Drug deaths [3] is reported as 4/11. The “Regression Duration” value [3] was 0 days, the “Tumour Growth Delay” value [3] was over 21 days and the “Median VQT” value [3] was over 46 days. For the same molecule, the “Response CR (Complete Response)” value [3] was 0, the “Response PD (Progressive Disease)” value [3] was 7 and the “Response PR (Partial Response)” value [3] was 0. For the same molecule, the “Response SD (Stable Disease)” value ([4]; Example 1) was 0, the “TTP (median time to disease progression)” value ([4]; Example 1) was 14 days and the “Regression Duration” value [4] was 0 days. For the same molecule, the “Tumour Growth Delay” value [4] was 32 days, the “Median VQT” value [4] was 57 days and the “Response CR (Complete Response)” value [4] was 0. For the same molecule, the “Response PD (Progressive Disease)” value ([4]; Example 1, ≧50% increase in tumour size) was 11, the “Response PR (Partial Response)” value [4] was 0 and the “Response SD (Stable Disease)” value [5] was 0. For the same molecule, the “TTP (median time to disease progression)” value [5] was 16 days, the “Regression Duration” value [5] was 10 days and the “Tumour Growth Delay” value [5] was 29 days. The “Median VQT” value [5] was 46 days, the “Response CR (Complete Response)” value [5] was 0 and the “Response PD (Progressive Disease)” value ([5]; ≧50% increase in tumour size) was 5. For the same molecule, the “Response PR (Partial Response)” value [5] was 1, the “tumour blood flow (dynamic MRI)” value (human tumours; well-tolerated doses) was “significant reduction in tumour blood flow” and the tumour responses (human tumours) was “very few tumour responses”.
